These results are taken from patent US20220025004A1, “COMPOSITIONS AND METHODS RELATED TO SITE-SPECIFIC IDENTIFICATION OF RNA MODIFICATIONS” (The University of Chicago, priority 2018, published 2022).

One assay relates to Flt3L-DCs. As to the kind of experiment: Cross-priming capacity of Flt3L-DCs pre-treated with CA-074 and/or cathepsin L inhibitor III, co-cultured with necrotic B16-OVA (IFN-γ production). The conditions noted are these: 5 μg/ml inhibitor for 2 h, necrotic B16-OVA 16 h, OT-I cells 3 days, FIG. 12F. Type of assay: cell-based, mouse. Here is the method: (§1) For cross-presentation of tumor neoantigen, CD11b^+ or CD8^+ DC were purified from draining lymph node of WT or Ythdf1^−/− mice six days after inoculating with B16-OVA, MC38-OTIp or MC38-EGFR-SIY. OT-I or 2C naive CD8^+ T cells were isolated from lymph nodes and spleen of 6 to 12-week-old mice. Negative selection was carried out with a negative CD8 isolation kit (StemCell Technologies, Inc.) following manufacturer's instruction. DCs were co-cultured with OT-1 naive CD8 T cells at the ratio of 1:10 for three days with or without 1 μg/ml SIINFEKEL peptide. For cross-presentation of soluble OVA, splenic DCs were sorted and stimulated with 100 ng/ml LPS overnight. DCs were then pulsed with different concentration of OVA (endotoxin free, Sigma) for 5 hours. Cells were washed and co-cultured with OT-I naive CD8^+ T cells for three days. For in vitro cross-presentation of tumor neoantigen, Flt3L-DCs were collected on day 9-10 and co-cultured with necrotic B16-OVA tumor cells overnight. B220^−CD11c^+ cells were subsequently purified. […] IFN-T production was detected by IFN-γ Flex Set CBA assay (BD Bioscience). […] The cross-priming capacity of DC was analyzed by the dilution of CTV in CD8^+ T cells. […] The cross-priming capacity of DCs was then evaluated by the IFN-γ production. […]

The test system of a further assay is B16-OVA tumors. The assay can be described thus: Cathepsin blockade in vivo: B16-OVA tumor growth after intratumoral E64. Further details: species or system mouse. The conditions noted are these: WT mice, s.c. B16-OVA, E64 intratumorally (5 μM or 50 μM) on day 11; FIG. 4B. Here is the method: About 1×10^6 B16-OVA or MC38 tumor cells were injected s.c. into the flank of mice. Tumor volumes were measured by length (a) and width (b) and calculated as tumor volume=ab^2/2. Mice with tumor volumes less than 200 mm^3 are considered to be survival. For in vivo depletion experiments, 200 μg of anti-CD8 antibody (clone YTS169.4) or anti-NK1.1 (clone PK136) was injected i.p. three days after tumor inoculation. To block cathepsins in vivo, mice were inoculated with 1×10^6 B16-OVA cells. On day 11, mice with established tumors were treated with E64 intratumorally. For anti-PDL1 treatment, 1×10^6 B16-OVA tumor cells were s.c. injected into the flank of mice. Tumors were allowed to grow for seven days and treated i.p. by anti-PDL1 (clone10F.9G2) or Rat Ig. Tumor-free mice after treatment were monitored over time and the percentage of tumor-regression was calculated. To block IFNγ, tumor-bearing mice were treated with 50 μg anti-IFNγ mAb (clone XMG1.2) intratumorally and PD-L1 expression on tumor cells was evaluated by flow cytometry. All antibodies were ‘InVivoMAb’ from BioXCell. For adoptive transfer of T cells. Rag mice were inoculated with 5×10^5 B16-OVA on day 0. On the same day, T cells were purified from WT or Ythdf1^−/− mice using T cell negative isolation Kit (STEM CELL). 5×10^6 T cells were intravenously (i.v.) injected into Rag2^−/− mice.

In a further assay the test system is wild-type DCs. As to the kind of experiment: Cross-priming capacity of wild-type DCs pre-treated with cathepsin inhibitor E64 (ex vivo cDCs, CTV dilution; GMDCs, IFN-γ CBA). The format is cell-based, mouse. As to conditions: E64 0.04 μM (ex vivo cDCs, OVA protein) or 0.2-2 μM (GMDCs, B16-OVA); OT-I T cells; FIGS. 12D-12E. How it is done:
as §1

Structures are written as SMILES. Where a SMILES comes first, the peptide text is derived from it. The star is where a group is joined. Cbz = O=C(OCc1ccccc1)*; CHN2 = [N-]=[N+]=C*; tBu = CC(C)(C)*

As to `CC(C)(C)Oc1ccc(C[C@H](NC(=O)[C@H](Cc2ccccc2)NC(=O)OCc2ccccc2)C(=O)C=[N+]=[N-])cc1` [cathepsin L inhibitor III] (Cbz-Phe-Tyr(tBu)-CHN2), the “efficiency of cross-priming in wild-type DCs” value (“efficiency of cross-priming” for short) in the assay with Flt3L-DCs is given as “notably enhanced”.
Take `CCCNC(=O)[C@H]1O[C@@H]1C(=O)N[C@H](C(=O)N1CCC[C@H]1C(=O)OC)[C@@H](C)CC` [CA-074]: the “efficiency of cross-priming” value in the assay with Flt3L-DCs is on record as “notably enhanced”.
For `CC(C)C[C@H](NC(=O)[C@H]1O[C@@H]1C(=O)O)C(=O)NCCCCN=C(N)N` [E64], the “in vivo antitumor response” value with B16-OVA tumors is recorded as “markedly improved”. Besides, in the assay on wild-type DCs, the “efficiency of cross-priming” value is given as “notably enhanced”.
